From PubChem BioAssay AID1996
Values after ≈ are worked out from the molar mass of the structure shown.

details: buffer; pH 7.4; 200.0 µM

First: CC(C)[C@H](NC(=O)c1ccccc1)C(=O)NC1CCCCCCC1
Second: N#Cc1ccccc1OCC(=O)Nc1ccccc1C(=O)NC1CC1
The solubility kinetic of the first is 27-fold lower: 1.8 µg/mL (≈ 5.45 µM) for the first, 48.3 µg/mL (≈ 144 µM) for the second.

Compared with `O=C(OCN1C(=O)c2ccccc2C1=O)c1ccc(Cl)nc1`, `COc1cccc(N2C(=O)c3cccnc3C2O)c1` (stereo unspecified) is 2.4-fold higher in solubility kinetic: 14.3 µg/mL (≈ 45.2 µM) for the first, 34.4 µg/mL (≈ 134 µM) for the second.

First: CCCCCCc1c(O)nc(SCCN(C)C)[nH]c1=O
Second: NC(=S)/N=C/c1c(O)[nH]c(=O)[nH]c1=O
The solubility kinetic of the first is 2.1-fold higher: 32.8 µg/mL (≈ 110 µM) for the first, 15.6 µg/mL (≈ 72.8 µM) for the second.

`O=C(NCc1cccnc1)Nc1ccc2c(c1)OCO2` and `O=C(O)C1CCCCC1C(=O)Nc1ccc2c(c1)OCO2` (stereo unspecified) cannot be ordered by solubility kinetic: > 40.7 µg/mL for the first, > 43.7 µg/mL for the second.

`O=C(O)C1CCN(C(=O)c2ccc3c(c2)OCO3)CC1` and `CCOC(=O)C1CCN(C(=O)c2cc3cc(F)ccc3[nH]2)CC1` are within 1.5-fold of each other in solubility kinetic: 36.2 µg/mL (≈ 131 µM) for the first, 32.4 µg/mL (≈ 102 µM) for the second.

First: Cc1c(C(=O)N2CCC[C@H]2C(N)=O)oc2c(F)cccc12
Second: CC1CCCN(C2(O)C(=O)Nc3ccc(Br)cc32)C1 (stereo unspecified)
The solubility kinetic of the first is lower: 38.1 µg/mL (≈ 131 µM) for the first, > 48.8 µg/mL for the second.

First: CNC(=S)NC1CC2CCCC(C1)N2Cc1ccccc1OC (stereo unspecified)
Second: COc1ccc(C)cc1NC(=O)CSCc1ccccc1C
The solubility kinetic of the first is higher: > 50 µg/mL for the first, 8.6 µg/mL (≈ 27.3 µM) for the second.

First: Cc1ccc(NC(=O)C2CCN(S(=O)(=O)c3cc([N+](=O)[O-])ccc3Cl)CC2)nc1
Second: Cc1cccc(NC(=O)c2cc([N+](=O)[O-])ccc2N2CCCCC2)n1
The solubility kinetic of the first is 40-fold higher: 16 µg/mL (≈ 36.5 µM) for the first, 0.4 µg/mL (≈ 1.18 µM) for the second.

First: S=C(Nc1ccc2nccnc2c1)N1CCCC1
Second: N#Cc1ccc(OCC(=O)Nc2ccc(N3CCCC3)cc2)cc1
The solubility kinetic of the first is higher: > 38.8 µg/mL for the first, 5.9 µg/mL (≈ 18.4 µM) for the second.

Compared with `Cc1cc(=O)oc2cc(OCC(O)Cn3ccnc3)ccc12` (stereo unspecified), `C=Cn1ccnc1CC(O)c1ccc(OC)cc1` (stereo unspecified) is lower in solubility kinetic: > 45 µg/mL for the first, 33.9 µg/mL (≈ 139 µM) for the second.

`COc1cccc(-c2nc(=S)c3c(o2)CCCC3)c1` and `COc1ccc2cc(S(=O)(=O)Nc3ccccn3)ccc2c1` are within 1.5-fold of each other in solubility kinetic: 12.1 µg/mL (≈ 44.3 µM) for the first, 10 µg/mL (≈ 31.8 µM) for the second.

Compared with `N#CC1(NC(=O)CSc2nc3ccccc3o2)CCCCC1`, `O=C(O)CC1(CC(=O)Nc2cc3ccccc3cn2)CCCCC1` is lower in solubility kinetic: > 47.3 µg/mL for the first, 40.7 µg/mL (≈ 125 µM) for the second.

First: O=C(Nc1ccc(N2CCOCC2)cc1)c1ccc2ncsc2c1
Second: COc1ccc(C2(CNC(=O)c3ccccc3)CCOCC2)cc1
The solubility kinetic of the first is lower: 10.1 µg/mL (≈ 29.8 µM) for the first, > 48.8 µg/mL for the second.

`CCN(CC)C(=O)c1cccc(NC(=O)C2=COCCO2)c1` and `CCN(CC)C(=O)c1ccccc1NC(=O)c1ccccc1` cannot be ordered by solubility kinetic: > 45.7 µg/mL for the first, > 44.5 µg/mL for the second.

`CN(Cc1c(O)ccc2c1oc(=O)c1ccccc12)C1CCCCC1` and `Cc1ccc(NS(=O)(=O)c2ccccc2[N+](=O)[O-])cc1S(=O)(=O)N1CCCCC1` cannot be ordered by solubility kinetic: > 50.6 µg/mL for the first, > 65.9 µg/mL for the second.

Going from `COc1ccc(NS(=O)(=O)c2cccc(C(=O)O)c2)cc1S(=O)(=O)N1CCCCC1` to `COc1ccc(NC(=O)Oc2ccccc2)cc1Cl`, the solubility kinetic falls from > 68.2 µg/mL to 18.4 µg/mL (≈ 66.3 µM).

`Nc1ncncc1-c1ccc(Cl)cc1` and `O=C(COc1ccc(Cl)cc1)NCCc1cnc[nH]1` cannot be ordered by solubility kinetic: > 30.8 µg/mL for the first, > 42 µg/mL for the second.

`COc1ccc(N2CC(C(=O)N3CCOCC3)CC2=O)cc1` (stereo unspecified) and `CCCNC(=O)C1CC(=O)N(c2ccc(OCC)cc2)C1` (stereo unspecified) cannot be ordered by solubility kinetic: > 45.7 µg/mL for the first, > 43.6 µg/mL for the second.

`CC(C)=NN1C(c2nonc2N)=NOC1(C)C` and `CC1(C)NC(=O)N(CC(=O)OCC(=O)c2ccc(Br)s2)C1=O` cannot be ordered by solubility kinetic: > 35.7 µg/mL for the first, > 58.4 µg/mL for the second.

Compared with `COc1cc(NC(=O)CCN2CCN(CCO)CC2)cc(OC)c1`, `COc1ccc(NC(=O)Cn2cc(C(C)=O)c3ccccc32)cc1` is 89-fold lower in solubility kinetic: 44.5 µg/mL (≈ 132 µM) for the first, 0.5 µg/mL (≈ 1.55 µM) for the second.

`O=C(Cn1c(=O)oc2ccccc21)NCC1COc2ccccc2O1` (stereo unspecified) and `O=C(CN1CCCC1)NN=C(c1ccccc1)c1ccccc1` cannot be ordered by solubility kinetic: > 51.1 µg/mL for the first, > 46.1 µg/mL for the second.

Going from `CC(C)Cn1c(N)c(C(=O)COC(=O)c2cccn2C)c(=O)n(C)c1=O` to `COC(=O)/C=C1\SC(=NC(=O)c2ccc(C)cc2)NC1=O`, the solubility kinetic falls from > 54.4 µg/mL to 44.5 µg/mL (≈ 146 µM).

`Nc1ccccc1C#Cc1ccc([N+](=O)[O-])cc1` and `O=C(CCCOc1ccc(Cl)cc1)NCCc1ccccc1` are within 1.5-fold of each other in solubility kinetic: 1.1 µg/mL (≈ 4.62 µM) for the first, 1.5 µg/mL (≈ 4.72 µM) for the second.

First: COc1ccc(/C=C/C(=O)NC2=NCCS2)cc1OC
Second: Cc1cccc(/C(N)=N/OC(=O)c2ccoc2C)c1
The solubility kinetic of the first is 25-fold lower: 1.5 µg/mL (≈ 5.13 µM) for the first, 38 µg/mL (≈ 147 µM) for the second.

Going from `Cc1ccc(NC(=O)c2ccccn2)c(Br)c1` to `COC(=O)c1ccccc1NC(=O)c1cc(-c2ccco2)on1`, the solubility kinetic rises from < 0.3 µg/mL to 0.6 µg/mL (≈ 1.92 µM).

`COc1ccc(OCCn2cnc(Cl)c2Cl)cc1` and `Cc1cc(NC(=O)Nc2ccccc2Cl)no1` are within 1.5-fold of each other in solubility kinetic: 41.1 µg/mL (≈ 143 µM) for the first, 36.2 µg/mL (≈ 144 µM) for the second.

Going from `CC(Nc1nc(=S)nc(Nc2ccc(F)cc2)[nH]1)c1ccccc1` (stereo unspecified) to `CCOc1ccccc1NC(=S)NCc1ccccc1`, the solubility kinetic rises from 0.6 µg/mL (≈ 1.76 µM) to 38.8 µg/mL (≈ 135 µM) (65-fold).

Going from `CN1c2ccccc2C(=O)/C(=C\Nc2ncccn2)S1(=O)=O` to `COc1nc(N(C)C)nc(N(C#N)S(=O)(=O)c2ccc(C)cc2)n1`, the solubility kinetic rises from 2.8 µg/mL (≈ 8.85 µM) to 51.7 µg/mL (≈ 148 µM) (18-fold).

Going from `Cc1nc(N2CCOCC2)nc(N2CCC(C)CC2)c1[N+](=O)[O-]` to `O=C(CN1CCCC1)Nc1ccc(Br)cc1[N+](=O)[O-]`, the solubility kinetic rises from 12.6 µg/mL (≈ 39.2 µM) to 20.3 µg/mL (≈ 61.9 µM) (1.6-fold).

Going from `Cc1ccc(Nc2nc(N)nc(CCl)n2)c(C)c1` to `CN(C)/C=C(\C#N)S(=O)(=O)c1ccc(Cl)cc1`, the solubility kinetic falls from > 39.6 µg/mL to 37.7 µg/mL (≈ 139 µM).

Work on `NC(=S)Cc1ccccc1Cl` yielded a solubility kinetic of 25.2 µg/mL (≈ 136 µM).
